# Measurements as given in ChEMBL document CHEMBL5137080, “Discovery of Novel 7-Hydroxy-5-oxo-4,5-dihydrothieno[3,2-b]pyridine-6-carboxamide Derivatives with Potent and Selective Antifungal Activity against Cryptococcus Species” (J Med Chem, 2022).
# Columns and labels:
# Candida albicans = assay: Antifungal activity against Candida albicans SC5314 assessed as fungal growth inhibition incubated for 48 hrs by broth microdilution method; type: functional
# Aspergillus fumigatus = assay: Antifungal activity against Aspergillus fumigatus 7544 assessed as fungal growth inhibition incubated for 48 hrs by broth microdilution method; type: functional
# Cryptococcus neoformans [1] = assay: Antifungal activity against Cryptococcus neoformans H99 assessed as fungal growth inhibition incubated for 72 hrs by broth microdilution method; type: functional
# [2] = tested on: Cryptococcus gattii species complex; assay: Antifungal activity against Cryptococcus gattii E566 assessed as fungal growth inhibition incubated for 72 hrs by broth microdilution method; type: functional
# [3] = tested on: Cryptococcus deuterogattii; assay: Antifungal activity against Cryptococcus gattii WM178 assessed as fungal growth inhibition incubated for 72 hrs by broth microdilution method; type: functional, Cryptococcus gattii species complex
# Cryptococcus gattii = assay: Antifungal activity against Cryptococcus gattii WM179 assessed as fungal growth inhibition incubated for 72 hrs by broth microdilution method; type: functional, Cryptococcus gattii species complex
# [Candida] auris [4] = Antifungal activity against Candida auris CBS 12372 assessed as fungal growth inhibition incubated for 48 hrs by broth microdilution method; type: functional; conditions: Candidozyma auris
# Nakaseomyces glabratus = assay: Antifungal activity against Candida glabrata ATCC1182 assessed as fungal growth inhibition incubated for 48 hrs by broth microdilution method; type: functional
# Cryptococcus neoformans [5] = assay: Antifungal activity against Cryptococcus neoformans clinical isolate BJ3 assessed as fungal growth inhibition incubated for 72 hrs by broth microdilution method; type: functional
# Pichia kudriavzevii = assay: Antifungal activity against Candida krusei ATCC2340 assessed as fungal growth inhibition incubated for 48 hrs by broth microdilution method; type: functional
# Candida tropicalis = assay: Antifungal activity against Candida tropicalis ATCC20026 assessed as fungal growth inhibition incubated for 48 hrs by broth microdilution method; type: functional
# Cryptococcus neoformans [6] = assay: Antifungal activity against Cryptococcus neoformans clinical isolate 56992 assessed as fungal growth inhibition incubated for 72 hrs by broth microdilution method; type: functional
# Cryptococcus neoformans [7] = assay: Antifungal activity against Cryptococcus neoformans clinical isolate HN1 assessed as fungal growth inhibition incubated for 72 hrs by broth microdilution method; type: functional
# Cryptococcus neoformans [8] = assay: Antifungal activity against Cryptococcus neoformans clinical isolate HN2 assessed as fungal growth inhibition incubated for 72 hrs by broth microdilution method; type: functional
# Cryptococcus neoformans [9] = assay: Antifungal activity against Cryptococcus neoformans clinical isolate HN2-40 assessed as fungal growth inhibition incubated for 72 hrs by broth microdilution method; type: functional
# Cryptococcus neoformans [10] = assay: Antifungal activity against Cryptococcus neoformans clinical isolate HN15 assessed as fungal growth inhibition incubated for 72 hrs by broth microdilution method; type: functional
# Cryptococcus neoformans [11] = assay: Antifungal activity against Cryptococcus neoformans clinical isolate HN17 assessed as fungal growth inhibition incubated for 72 hrs by broth microdilution method; type: functional
# Cryptococcus neoformans [12] = assay: Antifungal activity against Cryptococcus neoformans clinical isolate HN19 assessed as fungal growth inhibition incubated for 72 hrs by broth microdilution method; type: functional
# Cryptococcus neoformans [13] = assay: Antifungal activity against Cryptococcus neoformans clinical isolate HN20 assessed as fungal growth inhibition incubated for 72 hrs by broth microdilution method; type: functional
# Cryptococcus neoformans [14] = assay: Antifungal activity against Cryptococcus neoformans clinical isolate SH68 assessed as fungal growth inhibition incubated for 72 hrs by broth microdilution method; type: functional
# Cryptococcus neoformans [15] = assay: Antifungal activity against Cryptococcus neoformans clinical isolate 443 assessed as fungal growth inhibition incubated for 72 hrs by broth microdilution method; type: functional
# Cryptococcus neoformans [16] = assay: Antifungal activity against Cryptococcus neoformans clinical isolate 444 assessed as fungal growth inhibition incubated for 72 hrs by broth microdilution method; type: functional
# Cryptococcus neoformans [17] = assay: Antifungal activity against Cryptococcus neoformans clinical isolate 445 assessed as fungal growth inhibition incubated for 72 hrs by broth microdilution method; type: functional
# [18] = tested on: Cryptococcus gattii species complex; assay: Antifungal activity against Cryptococcus gattii clinical isolate SCZ20024 assessed as fungal growth inhibition incubated for 72 hrs by broth microdilution method; type: functional
# [19] = tested on: Cryptococcus gattii species complex; assay: Antifungal activity against Cryptococcus gattii clinical isolate SCZ20031 assessed as fungal growth inhibition incubated for 72 hrs by broth microdilution method; type: functional
# [Candida] auris [20] = Antifungal activity against Candida auris CBS 12372 assessed as fungal growth inhibition incubated for 48 hrs in presence of P163-0892 by broth microdilution method; type: functional; conditions: Candidozyma auris
# Cryptococcus neoformans [21] = assay: Antifungal activity against Cryptococcus neoformans clinical isolate 444 assessed as fungal growth inhibition incubated for 72 hrs in presence of P163-0892 by broth microdilution method; type: functional
# Cryptococcus neoformans [22] = assay: Synergistic antifungal activity against Cryptococcus neoformans clinical isolate HN2-40 assessed as fractional inhibitory concentration index incubated for 72 hrs in presence of P163-0892 by broth microdilution method; type: functional
# [23] = tested on: Cryptococcus gattii species complex; assay: Synergistic antifungal activity against Cryptococcus gattii clinical isolate SCZ20031 assessed as fractional inhibitory concentration index incubated for 72 hrs in presence of P163-0892 by broth microdilution method; type: functional
# Cryptococcus neoformans [24] = assay: Antifungal activity against Cryptococcus neoformans H99 infected in Wax moth larvae assessed as reduction on fungal burden at 10 mg/kg measured after 9 days by 10 fold serial dilution method; type: functional; conditions: time 9 day
# Cryptococcus neoformans [25] = assay: Antifungal activity against Cryptococcus neoformans H99 infected in Wax moth larvae assessed as median survival time at 10 mg/kg measured after 9 days by Kaplan-Meier method; type: functional; conditions: time 9 day
# [26] = tested on: Cryptococcus deuterogattii; assay: Antifungal activity against Cryptococcus gattii WM178 infected in Wax moth larvae assessed as median survival time at 10 mg/kg measured after 9 days by Kaplan-Meier method; type: functional, Cryptococcus gattii species complex; conditions: time 9 day
# [27] = Cytotoxicity against human HUVEC cells assessed as inhibition on cell growth incubated for 24 hrs by CCK-8 assay; type: toxicity, cell-based
# [28] = Cytotoxicity against human HUVEC cells assessed as cell viability at 256 ug/ml incubated for 24 hrs by CCK-8 assay; type: toxicity, cell-based; conditions: at 256 µg/mL, read-out: Activity
# [29] = Cytotoxicity against human Caco-2 cells assessed as cell viability at 256 ug/ml incubated for 24 hrs by CCK-8 assay; type: toxicity, cell-based; conditions: at 256 µg/mL, read-out: Activity
# [30] = Hemolytic activity in rabbit RBC at 16 ug/ml incubated for 1 hr by spectrophotometry; type: toxicity, cell-based, Oryctolagus cuniculus, Erythrocyte; conditions: red blood cells, at 16 µg/mL, read-out: Activity
# [31] = Hemolytic activity in rabbit RBC at 256 ug/ml incubated for 1 hr by spectrophotometry; type: toxicity, cell-based, Oryctolagus cuniculus, Erythrocyte; conditions: red blood cells, at 256 µg/mL, read-out: Activity
# Cryptococcus neoformans [32] = assay: Antifungal activity against Cryptococcus neoformans H99 infected in Wax moth larvae assessed as survival rate at 10 mg/kg measured after 9 days by Kaplan-Meier method; type: functional; conditions: H99, 216 h, time 9 day
# [33] = tested on: Cryptococcus deuterogattii; assay: Antifungal activity against Cryptococcus gattii WM178 infected in Wax moth larvae assessed as survival rate at 10 mg/kg measured after 9 days by Kaplan-Meier method; type: functional, Cryptococcus gattii species complex; conditions: WM178, 216 h, time 9 day
smiles,measurement,setting,value
OC(Cn1cncn1)(Cn1cncn1)c1ccc(F)cc1F [FLUCONAZOLE],MIC,Candida albicans,0.5 µg/mL
same,MIC,Aspergillus fumigatus,> 64 µg/mL
same,MIC,Cryptococcus neoformans [1],16 µg/mL
same,MIC,[2],4 µg/mL
same,MIC,[3],4 µg/mL
same,MIC,Cryptococcus gattii,4 µg/mL
same,MIC,[Candida] auris [4],1 µg/mL
same,MIC,Nakaseomyces glabratus,> 64 µg/mL
same,MIC,Cryptococcus neoformans [5],2 µg/mL
same,MIC,Pichia kudriavzevii,8 µg/mL
same,MIC,Candida tropicalis,2 µg/mL
same,MIC,Cryptococcus neoformans [6],2 µg/mL
same,MIC,Cryptococcus neoformans [7],2 µg/mL
same,MIC,Cryptococcus neoformans [8],2 µg/mL
same,MIC,Cryptococcus neoformans [9],1 µg/mL
same,MIC,Cryptococcus neoformans [10],4 µg/mL
same,MIC,Cryptococcus neoformans [11],4 µg/mL
same,MIC,Cryptococcus neoformans [12],4 µg/mL
same,MIC,Cryptococcus neoformans [13],0.5 µg/mL
same,MIC,Cryptococcus neoformans [14],8 µg/mL
same,MIC,Cryptococcus neoformans [15],8 µg/mL
same,MIC,Cryptococcus neoformans [16],4 µg/mL
same,MIC,Cryptococcus neoformans [17],8 µg/mL
same,MIC,[18],4 µg/mL
same,MIC,[19],8 µg/mL
same,MIC,[Candida] auris [20],> 64 µg/mL
same,MIC,Cryptococcus neoformans [21],0.5 µg/mL
same,fractional inhibitory concentration index (FICI),Cryptococcus neoformans [22],0.188
same,fractional inhibitory concentration index (FICI),[23],0.25
same,Activity,Cryptococcus neoformans [24],5.3 log10CFU/g
same,MST,Cryptococcus neoformans [25],2.5 days
same,MST,[26],3 days
same,IC50 at 24 h,[27],> 64 µg/mL
same,"viability at 24 h, 256 ug/ml",[28],108%
same,"viability at 24 h, 256 ug/ml",[29],95.3%
same,"hemolysis at 1 h, 16 ug/ml",[30],2.65%
same,"hemolysis at 1 h, 256 ug/ml",[31],2.67%
same,survival at 10 mg/kg,Cryptococcus neoformans [32],35%
same,survival at 10 mg/kg,[33],40%
